US12606561B2, “Substituted pyrazolo[1,5-a][1,3,5]triazines as CDK inhibitors” (QURIENT CO., LTD., priority 2018, dated 2026)

Experiments:
[1] = target: T1, CDK7/Cyclin H/MNAT1 (Homo sapiens, UniProt P50613); experiment: Enzymatic assay for CDK7 (LANCE Ultra kinase assay, FRET based); format: biochemical; conditions: for IC50: ATP at Km
T1 construct: purchased Invitrogen PR6749B
In short: (§1)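 FRET read-out: Eu-labeled anti-phospho-antibody binding a phosphorylated ULight peptide. Purified CDK–cyclin complex, ATP at Km.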

[2] = target: T2, CDK2/Cyclin A (Homo sapiens, UniProt P24941); experiment: Enzymatic assay for CDK2 (LANCE Ultra kinase assay, FRET based); format: biochemical; conditions: ATP at Km
T2 construct: purchased Invitrogen PV6290
In short: (§2)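 TR-FRET kinase assay at ATP Km with ULight-MBP peptide (68 nM) and Eu-anti-phospho-MBP antibody; CDK2/Cyclin A at […], CDK5/p25 at […]. 8-dose 4-fold compound dilutions; 60 min kinase reaction at 23° C., EDTA stop, 60 min detection, read at 615/665 nm.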

[3] = target: T3, CDK5/p25 (Homo sapiens, UniProt Q00535); experiment: Enzymatic assay for CDK5 (LANCE Ultra kinase assay, FRET based); format: biochemical; conditions: ATP at Km
T3 construct: purchased Invitrogen PR8543B
In short: as §2

[4] = system: OVCAR-3; experiment: OVCAR-3 viability assay (CellTiter-Glo, 72 hours); format: cell-based; conditions: Homo sapiens; OVCAR-3 cells
In short: (§3)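 CellTiter-Glo luminescence read-out after 72 h compound exposure at 37° C, 5% CO2, duplicates. Seeding densities: MV4-11 1×10^4 cells/well, OVCAR-3 5×10^3, A2780 1×10^3. Dose range 0.0015 uM to 10 uM, added 24 h post-plating; DMSO control, final <0.1%.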

[5] = target: T4, CDK1/Cyclin B (Homo sapiens, UniProt P06493); experiment: Enzymatic assay for CDK1 (LANCE Ultra kinase assay, FRET based); format: biochemical; conditions: ATP at Km; read-out: CDK1 enzymatic activity IC50
T4 construct: purchased Invitrogen PR4768C
In short: as §1

[6] = system: A2780; experiment: A2780 viability assay (CellTiter-Glo, 72 hours); format: cell-based; conditions: Homo sapiens; A2780 cells
In short: as §3

T3 sequence (Q00535 whole entry): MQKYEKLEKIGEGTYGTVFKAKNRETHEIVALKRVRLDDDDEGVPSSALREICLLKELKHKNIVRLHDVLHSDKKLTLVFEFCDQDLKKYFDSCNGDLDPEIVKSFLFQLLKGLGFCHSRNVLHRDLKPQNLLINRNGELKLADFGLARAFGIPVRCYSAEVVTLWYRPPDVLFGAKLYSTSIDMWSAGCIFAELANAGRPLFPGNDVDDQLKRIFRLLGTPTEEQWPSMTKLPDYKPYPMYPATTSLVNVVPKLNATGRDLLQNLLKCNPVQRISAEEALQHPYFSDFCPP
T3 sequence (Q15078 99-307 partner limits assumed): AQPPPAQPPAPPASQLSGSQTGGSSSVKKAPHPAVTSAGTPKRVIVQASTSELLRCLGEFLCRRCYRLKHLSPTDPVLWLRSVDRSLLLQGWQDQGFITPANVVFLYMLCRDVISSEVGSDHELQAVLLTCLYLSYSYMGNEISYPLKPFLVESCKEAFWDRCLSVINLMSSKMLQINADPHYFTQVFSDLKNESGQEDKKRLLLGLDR
T4 sequence (P06493 whole entry): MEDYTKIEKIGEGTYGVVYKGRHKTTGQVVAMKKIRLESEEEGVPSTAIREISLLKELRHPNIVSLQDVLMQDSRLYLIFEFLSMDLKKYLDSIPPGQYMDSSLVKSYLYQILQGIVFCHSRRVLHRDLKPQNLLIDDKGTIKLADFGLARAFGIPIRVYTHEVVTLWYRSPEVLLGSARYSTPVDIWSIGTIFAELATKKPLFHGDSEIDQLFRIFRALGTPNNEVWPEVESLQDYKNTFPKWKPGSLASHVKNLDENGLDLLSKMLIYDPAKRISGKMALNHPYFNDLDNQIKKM
T4 sequence (P14635 whole entry partner): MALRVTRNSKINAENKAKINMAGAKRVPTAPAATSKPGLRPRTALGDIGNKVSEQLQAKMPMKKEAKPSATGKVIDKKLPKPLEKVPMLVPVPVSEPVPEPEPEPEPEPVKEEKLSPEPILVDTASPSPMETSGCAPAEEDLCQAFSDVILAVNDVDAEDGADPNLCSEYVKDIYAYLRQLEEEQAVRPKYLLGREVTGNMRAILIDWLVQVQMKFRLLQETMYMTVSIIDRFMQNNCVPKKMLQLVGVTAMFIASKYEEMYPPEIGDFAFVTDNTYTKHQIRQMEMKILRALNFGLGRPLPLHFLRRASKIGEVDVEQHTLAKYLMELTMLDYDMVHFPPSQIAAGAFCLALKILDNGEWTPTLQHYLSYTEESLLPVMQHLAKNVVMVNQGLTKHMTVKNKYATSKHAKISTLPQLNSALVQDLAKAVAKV
T1 sequence (P50613 whole entry): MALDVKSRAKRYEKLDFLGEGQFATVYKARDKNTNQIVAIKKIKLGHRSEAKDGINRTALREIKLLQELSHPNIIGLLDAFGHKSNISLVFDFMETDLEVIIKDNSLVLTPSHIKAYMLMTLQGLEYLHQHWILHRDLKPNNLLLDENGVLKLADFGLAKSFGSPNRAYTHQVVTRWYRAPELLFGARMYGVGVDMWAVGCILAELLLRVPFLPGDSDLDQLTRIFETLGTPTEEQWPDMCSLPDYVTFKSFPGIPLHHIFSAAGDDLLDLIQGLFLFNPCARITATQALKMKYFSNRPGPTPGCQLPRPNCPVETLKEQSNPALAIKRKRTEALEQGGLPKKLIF
T1 sequence (P51946 whole entry partner): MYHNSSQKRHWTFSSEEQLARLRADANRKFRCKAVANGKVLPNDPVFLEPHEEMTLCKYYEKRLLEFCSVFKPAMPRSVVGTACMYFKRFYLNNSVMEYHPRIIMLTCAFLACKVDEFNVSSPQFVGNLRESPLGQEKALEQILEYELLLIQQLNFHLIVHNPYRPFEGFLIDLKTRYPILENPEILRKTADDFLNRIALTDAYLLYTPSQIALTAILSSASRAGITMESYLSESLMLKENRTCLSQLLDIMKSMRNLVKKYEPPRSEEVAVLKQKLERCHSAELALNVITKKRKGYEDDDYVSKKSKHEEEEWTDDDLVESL
T1 sequence (P51948 whole entry partner): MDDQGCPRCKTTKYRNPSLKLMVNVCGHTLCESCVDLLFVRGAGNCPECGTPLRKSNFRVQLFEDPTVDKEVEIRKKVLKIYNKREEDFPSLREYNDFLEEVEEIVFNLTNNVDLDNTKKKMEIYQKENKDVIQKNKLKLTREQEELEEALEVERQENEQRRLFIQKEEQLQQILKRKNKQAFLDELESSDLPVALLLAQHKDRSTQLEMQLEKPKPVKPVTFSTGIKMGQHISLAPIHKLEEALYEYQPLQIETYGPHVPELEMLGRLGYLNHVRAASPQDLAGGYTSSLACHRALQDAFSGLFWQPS

Row | IC50 [1] | CDK1/CDK7: Selectivity of CDK7 inhibition over CDK1 inhibition [1] | CDK2/CDK7: Selectivity of CDK7 inhibition over CDK2 inhibition [1] | CDK5/CDK7: Selectivity of CDK7 inhibition over CDK5 inhibition [1] | IC50 [2] | IC50 [3] | IC50 [4] | IC50 [5] | IC50 [6] | Compound
1 | < 0.1 µM | A (A indicates [fold] > 500) | A (A indicates [fold] > 500) | A (A indicates [fold] > 500) | > 1 µM | > 1 µM | < 1 µM | > 1 µM | < 1 µM | CC(C)c1cnn2c(NCc3ccccc3-c3nccc4cc(NC(=O)/C=C/CN(C)C)ccc34)nc(N3CCOC4(CCN(C)CC4)C3)nc12 [Compound 120]
2 | < 0.1 µM | B (B indicates 50 < [fold] ≤ 500) | B (B indicates 50 < [fold] ≤ 500) | B (B indicates 50 < [fold] ≤ 500) | > 1 µM | > 1 µM | < 1 µM | > 1 µM | < 1 µM | CC(C)c1cnn2c(NCc3ccccc3-c3nccc4cc(NC(=O)/C=C/CN(C)C)ccc34)nc(N3CCC4(CCN(C)C4)CC3)nc12 [Compound 121]
3 | < 0.1 µM | B (B indicates 50 < [fold] ≤ 500) | B (B indicates 50 < [fold] ≤ 500) | B (B indicates 50 < [fold] ≤ 500) | > 1 µM | > 1 µM | < 1 µM | > 1 µM | < 1 µM | CC(C)c1cnn2c(NCc3ccccc3-c3nccc4cc(NC(=O)/C=C/CN(C)C)ccc34)cc(N3CCC4(CC3)OCCO4)nc12 [Compound 124]
4 | < 0.1 µM | A (A indicates [fold] > 500) | A (A indicates [fold] > 500) | A (A indicates [fold] > 500) | > 1 µM | > 1 µM | < 1 µM | > 1 µM | < 1 µM | CC(C)c1cnn2c(NCc3ccccc3-c3nccc4cc(NC(=O)/C=C/CN(C)C)ccc34)nc(N3CCC4(CCN(C)CC4)CC3)nc12 [Compound 128]
5 | < 0.1 µM | A (A indicates [fold] > 500) | A (A indicates [fold] > 500) | A (A indicates [fold] > 500) | > 1 µM | > 1 µM | < 1 µM | > 1 µM | < 1 µM | CC(C)c1cnn2c(NCc3ccccc3-c3nccc4cc(NC(=O)/C=C/CN(C)C)ccc34)nc(NCC3CCN(C)CC3)nc12 [Compound 133]
6 | < 0.1 µM | A (A indicates [fold] > 500) | A (A indicates [fold] > 500) | A (A indicates [fold] > 500) | > 1 µM | > 1 µM | < 1 µM | > 1 µM | < 1 µM | Cc1cc(NCc2ccccc2-c2nccc3cc(NC(=O)/C=C/CN(C)C)ccc23)n2ncc(C(C)C)c2n1 [Compound 153]

The next lines start with the compound.

Row | Compound | IC50 [1] | CDK1/CDK7: Selectivity of CDK7 inhibition over CDK1 inhibition [1] | CDK2/CDK7: Selectivity of CDK7 inhibition over CDK2 inhibition [1] | CDK5/CDK7: Selectivity of CDK7 inhibition over CDK5 inhibition [1] | IC50 [2] | IC50 [3] | IC50 [4] | IC50 [5] | IC50 [6]
7 | CC(C)c1cnn2c(NCc3ccccc3-c3nccc4cc(NC(=O)/C=C/CN(C)C)ccc34)nc(OC3CC4CCC(C3)N4C)nc12 (stereo not drawn) [Compound 122] | < 0.1 µM | A (A indicates [fold] > 500) | A (A indicates [fold] > 500) | A (A indicates [fold] > 500) | > 1 µM | > 1 µM | < 1 µM | > 1 µM | < 1 µM
8 | CC(C)c1cnn2c(NCc3ccccc3-c3nccc4cc(NC(=O)/C=C/CN(C)C)ccc34)nc(N3CC4CCC(C3)N4C)nc12 [Compound 123] | < 0.1 µM | A (A indicates [fold] > 500) | A (A indicates [fold] > 500) | A (A indicates [fold] > 500) | > 1 µM | > 1 µM | < 1 µM | > 1 µM | < 1 µM
9 | COC1CC2CCC(C1)N2c1cc(NCc2ccccc2-c2nccc3cc(NC(=O)/C=C/CN(C)C)ccc23)n2ncc(C(C)C)c2n1 (stereo not drawn) [Compound 125] | 0.1 to 1 µM | B (B indicates 50 < [fold] ≤ 500) | B (B indicates 50 < [fold] ≤ 500) | B (B indicates 50 < [fold] ≤ 500) | > 1 µM | > 1 µM | < 1 µM | > 1 µM | < 1 µM
10 | CC(C)c1cnn2c(NCc3ccccc3-c3nccc4cc(NC(=O)/C=C/CN(C)C)ccc34)nc(N3CCC(S(=O)(=O)N(C)C)CC3)nc12 [Compound 126] | 0.1 to 1 µM | B (B indicates 50 < [fold] ≤ 500) | B (B indicates 50 < [fold] ≤ 500) | B (B indicates 50 < [fold] ≤ 500) | > 1 µM | > 1 µM | < 1 µM | > 1 µM | < 1 µM
11 | CO[C@H]1CC[C@H](Nc2nc(NCc3c(C)cccc3-c3ccc4cccc(NC(=O)/C=C/CN(C)C)c4n3)n3ncc(C(C)C)c3n2)CC1 [Compound 127] | 0.1 to 1 µM | B (B indicates 50 < [fold] ≤ 500) | B (B indicates 50 < [fold] ≤ 500) | B (B indicates 50 < [fold] ≤ 500) | > 1 µM | > 1 µM | < 1 µM | > 1 µM | < 1 µM
12 | CC(C)c1cnn2c(NCc3ccccc3-c3nccc4cc(NC(=O)/C=C/CN(C)C)ccc34)nc(NC3CC4CCC(C3)N4C)nc12 (stereo not drawn) [Compound 130] | < 0.1 µM | A (A indicates [fold] > 500) | A (A indicates [fold] > 500) | A (A indicates [fold] > 500) | > 1 µM | > 1 µM | 1 to 10 µM | > 1 µM | < 1 µM
13 | C=C(F)C(=O)Nc1ccc2c(-c3ccccc3CNc3nc(O[C@@H]4CCCNC4)nc4c(C(C)C)cnn34)nccc2c1 [Compound 137] | < 0.1 µM | A (A indicates [fold] > 500) | A (A indicates [fold] > 500) | A (A indicates [fold] > 500) | > 1 µM | > 1 µM | < 1 µM | > 1 µM | < 1 µM
14 | CC(C)c1cnn2c(NCc3ccccc3-c3nccc4cc(NC(=O)/C=C/CN(C)C)ccc34)nc(NC3CCC(F)(F)CC3)nc12 [Compound 147] | < 0.1 µM | A (A indicates [fold] > 500) | A (A indicates [fold] > 500) | A (A indicates [fold] > 500) | > 1 µM | > 1 µM | < 1 µM | > 1 µM | < 1 µM
15 | CC(C)c1cnn2c(NCc3ccccc3-c3nccc4cc(NC(=O)/C=C/CN(C)C)ccc34)nc(N[C@@H]3CCCNC3)nc12 [Compound 150] | < 0.1 µM | A (A indicates [fold] > 500) | A (A indicates [fold] > 500) | A (A indicates [fold] > 500) | > 1 µM | > 1 µM | < 1 µM | > 1 µM | < 1 µM
16 | CC(C)c1cnn2c(NCc3ccccc3-c3nccc4cc(NC(=O)/C=C/CN(C)C)ccc34)nc(N[C@H]3CC[C@H](C)NC3)nc12 [Compound 151] | < 0.1 µM | A (A indicates [fold] > 500) | A (A indicates [fold] > 500) | A (A indicates [fold] > 500) | > 1 µM | > 1 µM | < 1 µM | > 1 µM | < 1 µM
17 | CC(C)c1cnn2c(NCc3ccccc3-c3nccc4cc(NC(=O)/C=C/CN(C)C)ccc34)nc(N[C@@H]3CC[C@@H](C)NC3)nc12 [Compound 154] | < 0.1 µM | A (A indicates [fold] > 500) | A (A indicates [fold] > 500) | A (A indicates [fold] > 500) | > 1 µM | > 1 µM | 1 to 10 µM | > 1 µM | < 1 µM
